What is called IC50 is the midpoint of a concentration-inhibition curve.

Like-named read-outs stand apart in the source and are kept apart here.

The source of these data is patent US9708247B2, “Modulators of the eIF2alpha pathway” (The Regents of the University of California, priority 2013, dated 2017).

One series is described as follows: Toxicity in mice. The series is classed as in vivo.
The next series has as its system ATF4 luciferase reporter. The experiment in a line: ATF4 luciferase reporter assay (Cell-luc) in HEK293T cells. The series is classed as cell-based, human. The method in brief:
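HEK293T cells stably carrying a human ATF4 5′-UTR (uORFs 1 and 2)–firefly luciferase reporter, treated with compound; luminescence measured at end point. Inhibition normalized to no-ER-stress DMSO control (100%).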

The subject of a further series is eIF2α (S51D). The series is described as follows: Polysome gradient analysis in HEK293Trex cells expressing eIF2α(S51D). The settings on record: 25 nM doxycycline 14 h, 200 nM ISRIB. The series is classed as cell-based, human. The procedure: The coding sequences of wild type mouse eIF2α, phosphomimetic (S51D) mutant was amplified by PCR from a mammalian expression vector (kind gift of David Ron). BamHI and EcoRI recognition sites were engineered into the primers. In addition a Kozak consensus sequence and a N-terminal FLAG epitope tag were engineered in the forward primer. […]. Mouse Embryonic Fibroblasts (MEFs) or TREx-293 cells expressing eIF2α(S51D) were seeded on 150 mm plates and allowed to grow to 80% confluence. Cells were then induced with 25 nM doxycycline for 14 h and subsequently treated with the appropriate compounds for the indicated times. 100 μg/ml of cycloheximide was added to the cells for 1 min before lysis. Cells were washed twice with PBS supplemented with 100 μg/ml cycloheximide and subsequently lysed in 20 mM Tris pH 7.4, 200 mM NaCl, 15 mM MgCl, 1 mM DTT, 8% Glycerol, 100 μg/ml cycloheximide, 1% Triton X-100 and EDTA-free protease inhibitor tablets (Roche). Cells were scraped, collected, triturated with a 25^7/8 gauge needle, and the homogenate was centrifuged for 10 min at 10,000×g. The supernatant was loaded on a 10-50% sucrose gradient and sedimented in a SW40 rotor at 150,000×g for 2.4 h. The gradients were fractionated using a piston gradient fractionator (BioComp) and UV absorbance at 254 nm was monitored using a UV-Monitor (BioRad).

Another series has as its system IL-6. The experiment in a line: Serum IL-6 after surgery (ELISA). Format: in vivo, mouse. The settings on record: mice, perioperative administration, 24 h after surgery. From the text: FIG. 26. Experimental design for measuring postsurgical cognitive dysfunction and effects of ISRIB on cognitive function; measurement of memory is a behavioral test using trace fear conditioning (TFC), which aims to establish a permanent memory in animals by using sensorial information; associative learning is presented with a neutral conditioning stimulus, paired with an aversive unconditioning stimulus (e.g. shock); freezing by the animal corresponds to the ability of the animal to retain memory from the context in which it has been trained. Separate cohorts of animals were used to assess inflammatory status 24 h after surgery. Downwards arrows represent injection points.
FIG. 28. […] Levels were measured using an enzyme-linked immunosorbent kit.

For series [1], the system named is PERK signaling (ATF4, PERK, XBP1s). The series is described as follows: Immunoblot analysis of PERK, ATF4 and XBP1s in HEK293T cells. Format: cell-based, human. The procedure: Cells were lysed in SDS-PAGE loading buffer (1% SDS, 62.5 mM Tris-HCl pH 6.8, 10% glycerol). Lysates were sonicated and equal amounts were loaded on SDS-PAGE gels (BioRad). Proteins were transferred onto nitrocellulose and probed with primary antibodies diluted in Tris-buffered saline supplemented with 0.1% Tween 20 and 5% bovine serum albumin. The following antibodies were used: CREB-2 (C-20) (1:800) (Santa Cruz Biotechnologies); PERK (D11A8) (1:1000), PERK (C33E10) (1:1000), eIF2α (9722) (1:1000), phospho-eIF2α (Ser51) (D9G8) XP (3398) (1:1000) (Cell Signaling Technology); XBP1s (C-terminus) (1:500) (BioLegend); M2 Flag (1:1000) (Sigma). An HRP-conjugated secondary antibody (Amersham) was employed to detect immune-reactive bands using enhanced chemiluminescence (SuperSignal, Thermo Scientific).
(In general: A western blot detects proteins with antibodies after separation by electrophoresis.)

`O=C(COc1ccc(Cl)cc1)NC1CCC(NC(=O)COc2ccc(Cl)cc2)CC1` (stereo not drawn) [ISRIB]: in the series “Toxicity in mice”, the toxicity entry was “no overt toxicity”. Besides, the IC50 turned out to be 5 nM with ATF4 luciferase reporter (cultured HEK293T cells, 2 μg/ml tunicamycin, 7 h, synthesized isomers, read-out: IC50, inhibition of the ATF4-luciferase reporter) and 40 nM with ATF4 luciferase reporter (screening library sample, likely a mixture of the two stereoisomers, read-out: IC50 of the library compound). For the same compound, in the series on eIF2α (S51D), the “translational attenuation by eIF2α(S51D) expression” value is “rescued translation”. Besides, the “serum IL-6 increase after surgery” value in the series on IL-6 is reported as “abrogated the increase in IL6”. Besides, the “XBP1 mRNA splicing and XBP1s production (IRE1 branch)” value in series [1] (ER stress plus 200 nM ISRIB) is recorded as “persisted”. In addition, the “PERK phosphorylation (mobility shift)” value in series [1] (ER-stressed HEK293T, 200 nM ISRIB) is “did not inhibit the mobility shift of PERK”. Also, the “ATF4 induction after GCN2 or HRI activation” value in series [1] (HEK293T, cysteine/methionine starvation or HRI activator 6 μM, 5 h, 200 nM ISRIB) was “blocked ATF4 induction”. In addition, in series [1] (HEK293T, tunicamycin or thapsigargin, 200 nM ISRIB, 3 h), the “production of endogenous ATF4 upon ER stress” value was “blocked production of endogenous ATF4”.
